# Results: article PMC2862277 (The Journal of neuroscience : the official journal of the …, 2010)
# “And” between values parts separate entries of the source, which are not always exact repeats. Identical values can stand only once. Like-named read-outs stand apart in the source and are kept apart here.
# What was measured:
# NR1(R755A)/NR2C = NR1(R755A)/NR2C (Rattus norvegicus, UniProt P35439+Q00961, R755A); assay: TEVC recording from Xenopus oocytes, mutant receptor; assay type: cell-based
# NR1(Y692A)/NR2B = NR1(Y692A)/NR2B (Rattus norvegicus, UniProt P35439+Q00960, Y692A); assay: as above; assay type: cell-based
# NR1(Y692A)/NR2D = NR1(Y692A)/NR2D (Rattus norvegicus, UniProt P35439+Q62645, Y692A); assay: as above; assay type: cell-based
# NR1/NR2C(Q800A) = NR1/NR2C(Q800A) (Rattus norvegicus, UniProt P35439+Q00961, Q787A); assay: as above; assay type: cell-based
# NR1/NR2C(S707N,R710P) = NR1/NR2C(S707N,R710P) (Rattus norvegicus, UniProt P35439+Q00961, R697P/S694N); assay: as above; assay type: cell-based
# NR1/NR2B(R693A) = NR1/NR2B(R693A) (Rattus norvegicus, UniProt P35439+Q00960, R693A); assay: as above; assay type: cell-based
# NR1(Y692A)/NR2C = NR1(Y692A)/NR2C (Rattus norvegicus, UniProt P35439+Q00961, Y692A); assay: as above; assay type: cell-based
# NR1/NR2C [1] = molecular target: T1, NR1/NR2C (Rattus norvegicus, UniProt P35439+Q00961); assay type: cell-based
# NR1/NR2B = NR1/NR2B (Rattus norvegicus, UniProt P35439+Q00960); assay: Two electrode voltage clamp recording from Xenopus laevis oocytes; assay type: cell-based; conditions: relative to maximal glycine (100 μM), 100 μM glutamate
# NR1/NR2A = NR1/NR2A (Rattus norvegicus, UniProt P35439+Q00959); assay: as above; assay type: cell-based; conditions: relative to maximal glycine (100 μM), 100 μM glutamate
# NR1/NR2B(E790Q) = NR1/NR2B(E790Q) (Rattus norvegicus, UniProt P35439+Q00960, E790Q); assay: TEVC recording from Xenopus oocytes, mutant receptor; assay type: cell-based
# NR1/NR2C(R703A) = NR1/NR2C(R703A) (Rattus norvegicus, UniProt P35439+Q00961, R690A); assay: as above; assay type: cell-based
# [2] = ref McBain et al., 1989; cited from earlier work
# NR1/NR2B(E790A) = NR1/NR2B(E790A) (Rattus norvegicus, UniProt P35439+Q00960, E790A); assay: TEVC recording from Xenopus oocytes, mutant receptor; assay type: cell-based
# NR1(E781A)/NR2C = NR1(E781A)/NR2C (Rattus norvegicus, UniProt P35439+Q00961, E781A); assay: as above; assay type: cell-based
# NR1/NR2D(E791Q) = NR1/NR2D(E791Q) (Rattus norvegicus, UniProt P35439+Q62645, E814Q); assay: as above; assay type: cell-based
# NR1/NR2C [3] = molecular target: T1, NR1/NR2C; assay: Least-squares fitting of Scheme 1a to macroscopic currents; assay type: cell-based
# NR1/NR2C(Q800E) = NR1/NR2C(Q800E) (Rattus norvegicus, UniProt P35439+Q00961, Q787E); assay: TEVC recording from Xenopus oocytes, mutant receptor; assay type: cell-based
# NR1/NR2C [4] = molecular target: T1, NR1/NR2C; assay: Single-channel recording from outside-out patches containing one active channel; assay type: cell-based
# NR1/NR2C [5] = molecular target: T1, NR1/NR2C; assay: Two electrode voltage clamp recording from Xenopus laevis oocytes; assay type: cell-based; conditions: NR1/NR2C; relative to maximal glycine (100 μM), 100 μM glutamate
# NR1(Y692A)/NR2A = NR1(Y692A)/NR2A (Rattus norvegicus, UniProt P35439+Q00959, Y692A); assay: TEVC recording from Xenopus oocytes, mutant receptor; assay type: cell-based
# NR1(R523A)/NR2C = NR1(R523A)/NR2C (Rattus norvegicus, UniProt P35439+Q00961, R523A); assay: as above; assay type: cell-based
# NR1/NR2A(E798Q) = NR1/NR2A(E798Q) (Rattus norvegicus, UniProt P35439+Q00959, E789Q); assay: as above; assay type: cell-based
# NR1/NR2D = NR1/NR2D (Rattus norvegicus, UniProt P35439+Q62645); assay: Two electrode voltage clamp recording from Xenopus laevis oocytes; assay type: cell-based; conditions: relative to maximal glycine (100 μM), 100 μM glutamate
# NR1(R523A)/NR2B = NR1(R523A)/NR2B (Rattus norvegicus, UniProt P35439+Q00960, R523A); assay: TEVC recording from Xenopus oocytes, mutant receptor; assay type: cell-based
# NR1/NR2C [6] = molecular target: T1, NR1/NR2C; assay: Maximum interval likelihood fitting of Scheme 1 to single channel data; assay type: cell-based
# NR1(E781A)/NR2B = NR1(E781A)/NR2B (Rattus norvegicus, UniProt P35439+Q00960, E781A); assay: TEVC recording from Xenopus oocytes, mutant receptor; assay type: cell-based
# [7] = 1 s concentration jump from DCS into glutamate plus DCS
# [8] = 1 mM agonist + 1 mM glutamate, 0.5 mM Ca2+
# [9] = 1 mM agonist + 1 mM glutamate, 0.5 mM Ca2+, reversal potential assumed 0 mV
# [10] = Figure 7B, paired recordings glycine vs DCS
# [11] = average of 6 individually fitted patches
# [12] = composite open time histogram from 6 patches
# [13] = composite shut time histogram from 6 patches
# [14] = representative recording from one patch (Figure 8B)
# [15] = Table 2, Scheme I (Monte Carlo simulation of gating model)
# [16] = this particular patch (Figure 8B), MIL fit Scheme 1
# T1 sequence (Q00961 20-1237, other chains not shown): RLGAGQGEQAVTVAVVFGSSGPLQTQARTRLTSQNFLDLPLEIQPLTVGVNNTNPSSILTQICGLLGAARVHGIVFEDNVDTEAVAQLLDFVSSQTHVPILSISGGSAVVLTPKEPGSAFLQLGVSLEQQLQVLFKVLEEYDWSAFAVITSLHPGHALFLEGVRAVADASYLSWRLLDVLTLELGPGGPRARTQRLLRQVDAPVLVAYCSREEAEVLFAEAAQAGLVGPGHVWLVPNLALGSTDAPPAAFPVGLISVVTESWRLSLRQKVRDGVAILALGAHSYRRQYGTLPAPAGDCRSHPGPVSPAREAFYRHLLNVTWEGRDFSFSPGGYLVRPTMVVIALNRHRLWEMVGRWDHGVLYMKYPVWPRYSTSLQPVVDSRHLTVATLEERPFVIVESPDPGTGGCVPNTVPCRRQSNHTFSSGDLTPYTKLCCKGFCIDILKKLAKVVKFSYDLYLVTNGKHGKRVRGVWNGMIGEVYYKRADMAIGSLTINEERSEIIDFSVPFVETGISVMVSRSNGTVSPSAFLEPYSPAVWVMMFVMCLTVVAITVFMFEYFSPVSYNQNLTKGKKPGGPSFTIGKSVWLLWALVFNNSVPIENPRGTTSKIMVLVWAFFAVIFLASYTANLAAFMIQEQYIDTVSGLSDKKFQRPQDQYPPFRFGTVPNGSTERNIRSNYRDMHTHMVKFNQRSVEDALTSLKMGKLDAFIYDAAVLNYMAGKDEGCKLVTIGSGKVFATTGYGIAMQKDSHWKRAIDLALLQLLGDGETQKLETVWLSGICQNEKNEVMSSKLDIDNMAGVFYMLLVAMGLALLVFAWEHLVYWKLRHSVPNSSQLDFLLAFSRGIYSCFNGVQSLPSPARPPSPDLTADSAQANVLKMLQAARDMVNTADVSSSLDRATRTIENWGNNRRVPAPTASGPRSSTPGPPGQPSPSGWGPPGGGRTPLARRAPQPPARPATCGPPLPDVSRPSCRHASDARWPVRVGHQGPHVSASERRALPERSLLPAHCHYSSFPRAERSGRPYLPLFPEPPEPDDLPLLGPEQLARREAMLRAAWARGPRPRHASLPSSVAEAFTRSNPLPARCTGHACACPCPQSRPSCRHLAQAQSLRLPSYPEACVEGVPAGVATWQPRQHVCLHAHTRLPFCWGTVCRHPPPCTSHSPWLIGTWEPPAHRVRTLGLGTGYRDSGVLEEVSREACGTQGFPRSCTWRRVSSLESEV
# NR1(R755A)/NR2C, sequence (Q00961 20-1237, other chains not shown): as above
# NR1(Y692A)/NR2C, sequence (Q00961 20-1237, other chains not shown): as above
# NR1(R523A)/NR2C, sequence (Q00961 20-1237, other chains not shown): as above
# NR1(E781A)/NR2C, sequence (Q00961 20-1237, other chains not shown): as above
# NR1/NR2A(E798Q), sequence (Q00959 23-1464 E789Q, other chains not shown): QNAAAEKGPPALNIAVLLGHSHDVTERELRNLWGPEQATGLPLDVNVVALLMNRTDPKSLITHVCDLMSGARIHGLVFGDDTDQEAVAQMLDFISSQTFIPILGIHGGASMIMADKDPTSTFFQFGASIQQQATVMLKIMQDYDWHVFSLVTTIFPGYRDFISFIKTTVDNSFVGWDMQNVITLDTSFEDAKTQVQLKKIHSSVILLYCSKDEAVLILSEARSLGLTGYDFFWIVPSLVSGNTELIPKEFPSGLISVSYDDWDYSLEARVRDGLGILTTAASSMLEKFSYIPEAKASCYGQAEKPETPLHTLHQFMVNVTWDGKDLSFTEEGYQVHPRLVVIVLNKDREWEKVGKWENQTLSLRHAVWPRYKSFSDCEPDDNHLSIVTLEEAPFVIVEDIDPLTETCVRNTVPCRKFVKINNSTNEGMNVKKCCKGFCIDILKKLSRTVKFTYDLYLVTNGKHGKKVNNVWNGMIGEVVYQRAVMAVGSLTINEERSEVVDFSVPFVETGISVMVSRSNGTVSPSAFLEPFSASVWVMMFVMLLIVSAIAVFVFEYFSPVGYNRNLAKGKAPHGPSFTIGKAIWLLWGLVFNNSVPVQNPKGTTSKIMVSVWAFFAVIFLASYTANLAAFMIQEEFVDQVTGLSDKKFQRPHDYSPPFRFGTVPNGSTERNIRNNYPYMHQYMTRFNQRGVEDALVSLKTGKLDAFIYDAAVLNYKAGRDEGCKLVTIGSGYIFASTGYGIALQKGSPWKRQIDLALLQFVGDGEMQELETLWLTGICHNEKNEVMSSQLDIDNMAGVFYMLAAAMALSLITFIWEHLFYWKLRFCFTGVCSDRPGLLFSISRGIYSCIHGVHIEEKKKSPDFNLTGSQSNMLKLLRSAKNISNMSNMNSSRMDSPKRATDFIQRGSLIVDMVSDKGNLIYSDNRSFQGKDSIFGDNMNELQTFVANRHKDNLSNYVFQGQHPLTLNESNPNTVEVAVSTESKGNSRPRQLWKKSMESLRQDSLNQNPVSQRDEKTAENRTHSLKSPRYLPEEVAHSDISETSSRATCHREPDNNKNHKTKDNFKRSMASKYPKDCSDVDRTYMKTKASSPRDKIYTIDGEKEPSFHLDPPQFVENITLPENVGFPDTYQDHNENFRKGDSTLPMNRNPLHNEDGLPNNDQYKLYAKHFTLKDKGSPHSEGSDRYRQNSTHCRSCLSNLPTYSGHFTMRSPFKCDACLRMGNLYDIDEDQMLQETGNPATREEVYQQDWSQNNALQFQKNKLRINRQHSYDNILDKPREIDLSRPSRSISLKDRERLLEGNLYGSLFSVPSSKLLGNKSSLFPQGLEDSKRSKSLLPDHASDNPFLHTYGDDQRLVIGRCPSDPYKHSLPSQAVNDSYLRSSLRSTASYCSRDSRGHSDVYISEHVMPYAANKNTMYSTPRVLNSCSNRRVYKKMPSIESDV
# NR1/NR2B(E790Q), sequence (Q00960 27-1482 E790Q, other chains not shown): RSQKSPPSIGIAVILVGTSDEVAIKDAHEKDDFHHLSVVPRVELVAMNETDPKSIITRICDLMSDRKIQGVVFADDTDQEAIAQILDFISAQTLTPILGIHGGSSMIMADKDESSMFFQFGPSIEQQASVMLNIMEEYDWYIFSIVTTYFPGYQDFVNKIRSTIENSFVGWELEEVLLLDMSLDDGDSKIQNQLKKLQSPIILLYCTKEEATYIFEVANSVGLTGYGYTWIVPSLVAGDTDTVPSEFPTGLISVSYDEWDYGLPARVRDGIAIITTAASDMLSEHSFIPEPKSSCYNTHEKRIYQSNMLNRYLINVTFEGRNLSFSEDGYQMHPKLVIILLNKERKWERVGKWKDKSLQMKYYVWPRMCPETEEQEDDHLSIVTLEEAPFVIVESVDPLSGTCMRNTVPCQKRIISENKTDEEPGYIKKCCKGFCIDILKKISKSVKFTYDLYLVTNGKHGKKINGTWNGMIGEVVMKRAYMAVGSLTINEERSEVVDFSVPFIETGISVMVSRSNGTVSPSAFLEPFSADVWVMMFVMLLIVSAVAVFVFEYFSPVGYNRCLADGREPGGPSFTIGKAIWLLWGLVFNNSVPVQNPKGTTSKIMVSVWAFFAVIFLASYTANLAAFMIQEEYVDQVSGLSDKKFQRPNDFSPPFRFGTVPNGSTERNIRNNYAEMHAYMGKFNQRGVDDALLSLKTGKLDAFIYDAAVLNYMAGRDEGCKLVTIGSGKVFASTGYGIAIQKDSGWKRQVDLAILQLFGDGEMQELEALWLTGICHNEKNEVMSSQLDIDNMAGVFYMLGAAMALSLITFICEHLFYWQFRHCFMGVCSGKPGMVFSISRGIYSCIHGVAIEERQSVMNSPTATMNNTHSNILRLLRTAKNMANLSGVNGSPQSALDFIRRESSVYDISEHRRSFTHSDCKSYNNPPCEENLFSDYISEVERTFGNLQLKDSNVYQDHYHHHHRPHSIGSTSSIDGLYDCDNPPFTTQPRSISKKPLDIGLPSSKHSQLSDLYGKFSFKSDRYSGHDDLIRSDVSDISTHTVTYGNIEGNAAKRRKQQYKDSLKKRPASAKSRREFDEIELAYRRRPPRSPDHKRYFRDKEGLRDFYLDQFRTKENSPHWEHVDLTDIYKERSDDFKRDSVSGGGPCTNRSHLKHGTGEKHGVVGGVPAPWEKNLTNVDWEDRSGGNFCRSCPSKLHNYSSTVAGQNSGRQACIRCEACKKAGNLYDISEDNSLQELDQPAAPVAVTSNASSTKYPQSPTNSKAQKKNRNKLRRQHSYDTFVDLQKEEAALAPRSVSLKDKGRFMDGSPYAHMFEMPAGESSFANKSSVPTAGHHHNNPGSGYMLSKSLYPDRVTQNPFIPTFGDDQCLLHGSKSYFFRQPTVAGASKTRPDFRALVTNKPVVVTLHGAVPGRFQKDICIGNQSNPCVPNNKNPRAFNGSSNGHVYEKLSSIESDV
# NR1/NR2C(R703A), sequence (Q00961 20-1237 R690A, other chains not shown): as the sequence (Q00961 20-1237, other chains not shown) above, with R671A counted along it
# NR1/NR2C(Q800A), sequence (Q00961 20-1237 Q787A, other chains not shown): as the sequence (Q00961 20-1237, other chains not shown) above, with Q768A counted along it
# NR1/NR2C(Q800E), sequence (Q00961 20-1237 Q787E, other chains not shown): as the sequence (Q00961 20-1237, other chains not shown) above, with Q768E counted along it
# NR1/NR2C(S707N,R710P), sequence (Q00961 20-1237 S694N/R697P, other chains not shown): as the sequence (Q00961 20-1237, other chains not shown) above, with S675N, R678P counted along it
compound,measurement,setting,value
"N[C@@H]1CON=C1O [DCS, D-cycloserine]",DCS Efficacy (% glycine),NR1(R755A)/NR2C,100 % glycine and 100 ± 5 % glycine
same,DCS Efficacy (% glycine),NR1(Y692A)/NR2B,46 ± 1 % glycine
same,DCS Efficacy (% glycine),NR1(Y692A)/NR2D,75 ± 1 % glycine
same,DCS Efficacy (% glycine),NR1/NR2C(Q800A),191 ± 7 % glycine
same,DCS Efficacy (% glycine),"NR1/NR2C(S707N,R710P)",190 ± 7 % glycine
same,DCS Efficacy (% glycine),NR1/NR2B(R693A),68 ± 3 % glycine
same,DCS Efficacy (% glycine),NR1(Y692A)/NR2C,59 ± 2 % glycine
same,Rise time,NR1/NR2C [1]; [7],3.8 ± 0.7 ms
same,glutamate deactivation time course,NR1/NR2C [1]; [7],242 ± 50 ms
same,Deactivation,"NR1/NR2C [1]; Table 3, Experimental",130 to 160 ms
same,Desensitization (τ1),"NR1/NR2C [1]; Table 3, Experimental",32 ms
same,Desensitization (τ2),"NR1/NR2C [1]; Table 3, Experimental",540 ms
same,Rise time,"NR1/NR2C [1]; Table 3, Experimental",3.1 to 4.9 ms
same,DCS Efficacy (% glycine),NR1/NR2B,65 ± 2 % glycine
same,DCS Efficacy (% glycine),NR1/NR2A,90 ± 2 % glycine
same,DCS Efficacy (% glycine),NR1/NR2B(E790Q),78 ± 1 % glycine
same,DCS Efficacy (% glycine),NR1/NR2C(R703A),190 ± 4 % glycine
same,pKa for exocyclic amine,[2],7.5
same,pKa for the exocyclic oxygen,[2],4.5
same,DCS Efficacy (% glycine),NR1/NR2B(E790A),68 ± 3 % glycine
same,DCS Efficacy (% glycine),NR1(E781A)/NR2C,150 ± 10 % glycine
same,DCS Efficacy (% glycine),NR1/NR2D(E791Q),110 ± 1 % glycine
same,Deactivation,NR1/NR2C [3]; Scheme Ia,245 ms
same,Desensitization (τ1),NR1/NR2C [3]; Scheme Ia,15 ms
same,Desensitization (τ2),NR1/NR2C [3]; Scheme Ia,130 ms
same,Peak Po,NR1/NR2C [3]; Scheme Ia,0.042
same,Rise time,NR1/NR2C [3]; Scheme Ia,2.4 ms
same,Steady state Po,NR1/NR2C [3]; Scheme Ia,0.030
same,Residual (normalized residual sum of squares),NR1/NR2C [3]; Scheme Ia macroscopic fit,2.67 × 10^−3
same,d1+,NR1/NR2C [3]; Scheme Ia macroscopic fit,1.4 s⁻¹
same,d1−,NR1/NR2C [3]; Scheme Ia macroscopic fit,5.7 s⁻¹
same,d2+,NR1/NR2C [3]; Scheme Ia macroscopic fit,6.7 s⁻¹
same,d2−,NR1/NR2C [3]; Scheme Ia macroscopic fit,16 s⁻¹
same,b+ (agonist binding rate),"NR1/NR2C [3]; glutamate binding step, Scheme Ia, with the labelled NR1 agonist",560000 M⁻¹ s⁻¹
same,b− (unbinding rate),"NR1/NR2C [3]; glutamate unbinding step, Scheme Ia, with the labelled NR1 agonist",3.4 s⁻¹
same,DCS Efficacy (% glycine),NR1/NR2C(Q800E),130 ± 4 % glycine
same,area of larger conductance level,NR1/NR2C [4]; [8],72 ± 8%
same,area of smaller conductance level,NR1/NR2C [4]; [8],28 ± 5%
same,conductance level (larger),NR1/NR2C [4]; [9],45 ± 5 pS
same,conductance level (smaller),NR1/NR2C [4]; [9],28 ± 3 pS
same,mean duration of all open periods,"NR1/NR2C [4]; 1 mM agonist + 1 mM glutamate, 6 one-channel patches",0.61 ± 0.06 ms
same,open probability (Po),"NR1/NR2C [4]; 1 mM agonist + 1 mM glutamate, patches with a single active channel",0.029 ± 0.006
same,"mean open time, % of control (glycine)","NR1/NR2C [4]; DCS vs glycine, paired patches",132%
same,"open probability, % of control (glycine)","NR1/NR2C [4]; DCS vs glycine, paired patches",163%
same,"mean open time increased by, in the presence of DCS",NR1/NR2C [4]; [10],131 ± 4%
same,"open probability increased by, in the presence of DCS",NR1/NR2C [4]; [10],194 ± 33%
same,MOT (mean open time),"NR1/NR2C [4]; Table 2, Experimental",0.57 ms
same,Steady state Po,"NR1/NR2C [4]; Table 3, Experimental",0.028
same,area of shut τ2,NR1/NR2C [4]; [11],10%
same,area of shut τ3,NR1/NR2C [4]; [11],30%
same,area of shut τ4,NR1/NR2C [4]; [11],36%
same,area of shut τ5,NR1/NR2C [4]; [11],5%
same,shut time constant τ1,NR1/NR2C [4]; [11],0.04 ± 0.005 ms
same,shut time constant τ2,NR1/NR2C [4]; [11],0.55 ± 0.16 ms
same,shut time constant τ3,NR1/NR2C [4]; [11],8.5 ± 1.2 ms
same,shut time constant τ4,NR1/NR2C [4]; [11],34 ± 4 ms
same,shut time constant τ5,NR1/NR2C [4]; [11],220 ± 79 ms
same,area of open time τ1,NR1/NR2C [4]; [12],49%
same,area of open time τ2,NR1/NR2C [4]; [12],51%
same,open time constant τ1,NR1/NR2C [4]; [12],0.32 ms
same,open time constant τ2,NR1/NR2C [4]; [12],0.76 ms
same,area of shut τ2,NR1/NR2C [4]; [13],10%
same,area of shut τ3,NR1/NR2C [4]; [13],36%
same,area of shut τ4,NR1/NR2C [4]; [13],32%
same,area of shut τ5,NR1/NR2C [4]; [13],3%
same,shut time constant τ1,NR1/NR2C [4]; [13],0.037 ms
same,shut time constant τ2,NR1/NR2C [4]; [13],0.48 ms
same,shut time constant τ3,NR1/NR2C [4]; [13],9.5 ms
same,shut time constant τ4,NR1/NR2C [4]; [13],36 ms
same,shut time constant τ5,NR1/NR2C [4]; [13],248 ms
same,apparent mean open time,NR1/NR2C [4]; [14],0.52 ms
same,open probability,NR1/NR2C [4]; [14],0.026
same,DCS Efficacy (% glycine),NR1/NR2C [5],190 ± 6 % glycine and 190 % glycine
same,DCS Efficacy (% glycine),NR1(Y692A)/NR2A,77 ± 1 % glycine
same,DCS Efficacy (% glycine),NR1(R523A)/NR2C,254±20 % glycine
same,DCS Efficacy (% glycine),NR1/NR2A(E798Q),90 ± 2 % glycine
same,DCS Efficacy (% glycine),NR1/NR2D,94 ± 2 % glycine
same,DCS Efficacy (% glycine),NR1(R523A)/NR2B,31±2 % glycine
same,d1+,"NR1/NR2C [6]; MIL fit Scheme 1, six patches",1.2 ± 0.4 s⁻¹
same,d1−,"NR1/NR2C [6]; MIL fit Scheme 1, six patches",4.2 ± 1.0 s⁻¹
same,d2+,"NR1/NR2C [6]; MIL fit Scheme 1, six patches",25 ± 8 s⁻¹
same,d2−,"NR1/NR2C [6]; MIL fit Scheme 1, six patches",38 ± 7 s⁻¹
same,k1+,"NR1/NR2C [6]; MIL fit Scheme 1, six patches",420 ± 80 s⁻¹
same,k1−,"NR1/NR2C [6]; MIL fit Scheme 1, six patches",1270 ± 340 s⁻¹
same,k2+ (forward rate of the fast gating step),"NR1/NR2C [6]; MIL fit Scheme 1, six patches",1395 ± 215 s^−1 and 1395± 215 ^* s^−1
same,k2−,"NR1/NR2C [6]; MIL fit Scheme 1, six patches",17510 ± 2135 s⁻¹
same,k3+,"NR1/NR2C [6]; MIL fit Scheme 1, six patches",4795 ± 815 s⁻¹
same,k3− (closing rate),"NR1/NR2C [6]; MIL fit Scheme 1, six patches",2150 ± 210 s^−1 and 2150 ± 210 ^* s^−1
same,k4+,"NR1/NR2C [6]; MIL fit Scheme 1, six patches",75 ± 35 s⁻¹
same,k4−,"NR1/NR2C [6]; MIL fit Scheme 1, six patches",1070 ± 130 s⁻¹
same,MOT (mean open time),NR1/NR2C [6]; [15],0.61 ms
same,Po,NR1/NR2C [6]; [15],0.029
same,LL/event (log likelihood per event),NR1/NR2C [6]; goodness of MIL fit of Scheme 1,4.86 ± 0.05
same,rate constant k2+,NR1/NR2C [6]; [16],2150 s⁻¹
same,rate constant k3−,NR1/NR2C [6]; [16],2388 s⁻¹
same,DCS Efficacy (% glycine),NR1(E781A)/NR2B,10 ± 1 % glycine
